Results: paper PMC10318456, “Selective inhibitors of the PSEN1–gamma-secretase complex” (The Journal of Biological Chemistry, 2023)
“And” between values parts separate entries of the source, which are not always exact repeats. Identical values can stand only once.

Experiments:
Type in all cases: cell-based
[1] = molecular target: T1, PSEN1 L166A–APH1A γ-secretase complex (Homo sapiens, UniProt P49768, L166A); assay: Aβ40 secretion, MEF cell pool restored with PSEN1 L166A–APH1A; settings: PSEN1 L166A (TM3)–APH1A cell pool; N = 3 to 4; mean (95% CI); decimal comma
T1 construct: expressed in transfected cells; host or cells: Psen1/2 double KO/Aph1ABC triple KO MEFs, pools without clonal selection
Description: (§1) We turned to experimental site–directed mutagenesis and selected a series of amino acids (Fig. 3) in the entrance channel for mutation to alanine. […] More importantly, they were all enzymatically active as shown by the secretion of Aβ40 in the supernatants of the cell cultures (Fig. 3B).
Conditional Psen1/2 double KO mice were crossed with conditional Aph1ABC triple KO mice ([29], [52], [58], [59]). At embryonic day 7.5, embryos were dissected and dissociated, and cells were plated in the presence of Dulbecco’s modified Eagle’s medium (DMEM)/F12 50% fetal calf serum (FCS) (Invitrogen). Primary MEFs were immortalized by transduction with LargeT antigen. Psen1/2 double KO/Aph1ABC triple KO MEFs were generated by transduction with a Cre-GFP–expressing adenoviral vector, and GFP-positive MEFs were sorted by fluorescence-activated cell sorting analysis. Psen1/2 Aph1ABC-deficient MEFs were maintained in DMEM/f12 10% FCS. […]
(§2) The number of plated cells and incubation times were determined in respect to linearity of Aβ peptide secretion, the dynamic range of Aβ peptide quantification in the medium, and sensitivity to dimethylsulfoxide (DMSO). […] The cell viability was assessed using the CellTiter-Glo Luminescent assay (Promega) that measures ATP production. […] We however measured five compounds at the Leuven site and noticed that absolute IC50 values were different (Fig. S2). […]

[2] = molecular target: T2, PSEN1 L173A–APH1A γ-secretase complex (Homo sapiens, UniProt P49768, L173A); assay: Aβ40 secretion, MEF cell pool restored with PSEN1 L173A–APH1A; settings: decimal comma; for IC50: PSEN1 L173A (TM3)–APH1A cell pool, N = 3 to 4, mean (95% CI)
T2 construct: expressed in transfected cells; host or cells: Psen1/2 double KO/Aph1ABC triple KO MEFs, pools without clonal selection
Description: as §1
(§3) Conditional Psen1/2 double KO mice were crossed with conditional Aph1ABC triple KO mice ([29], [52], [58], [59]). At embryonic day 7.5, embryos were dissected and dissociated, and cells were plated in the presence of Dulbecco’s modified Eagle’s medium (DMEM)/F12 50% fetal calf serum (FCS) (Invitrogen). Primary MEFs were immortalized by transduction with LargeT antigen. Psen1/2 double KO/Aph1ABC triple KO MEFs were generated by transduction with a Cre-GFP–expressing adenoviral vector, and GFP-positive MEFs were sorted by fluorescence-activated cell sorting analysis. Psen1/2 Aph1ABC-deficient MEFs were maintained in DMEM/f12 10% FCS. To rescue γ-secretase expression, Psen1/2 double KO/Aph1ABC triple KO MEFs were transduced using Murine Stem Cell Virus retroviral vector system (pMSCV) viral vectors (Clontech) containing the human coding sequences of the different PSEN and APH1 homologs and the zeocin selection marker. An Internal Ribosome Entry Site sequence was cloned between the coding sequences for PSEN and APH1 to ensure co-expression of both proteins. Stable transfected cell lines were selected using 500-μg/ml zeocin (Invitrogen). Four different combinations were made: PSEN1 and APH1AL, PSEN1 and APH1B, PSEN2 and APH1AL, and PSEN2 and APH1B. These cell lines were transduced with pMSCV viral vectors (Clontech) expressing APP-C99-GFP-puromycin. […]
as §2

[3] = molecular target: T3, PSEN1 L172A–APH1A γ-secretase complex (Homo sapiens, UniProt P49768, L172A); assay: Aβ40 secretion, MEF cell pool restored with PSEN1 L172A–APH1A; settings: for increase in binding affinity by alanine substitution of L172: PSEN1 L172A versus WT
T3 construct: expressed in transfected cells; host or cells: Psen1/2 double KO/Aph1ABC triple KO MEFs, pools without clonal selection
Description: as §1
(§4) Conditional Psen1/2 double KO mice were crossed with conditional Aph1ABC triple KO mice ([29], [52], [58], [59]). At embryonic day 7.5, embryos were dissected and dissociated, and cells were plated in the presence of Dulbecco’s modified Eagle’s medium (DMEM)/F12 50% fetal calf serum (FCS) (Invitrogen). Primary MEFs were immortalized by transduction with LargeT antigen. Psen1/2 double KO/Aph1ABC triple KO MEFs were generated by transduction with a Cre-GFP–expressing adenoviral vector, and GFP-positive MEFs were sorted by fluorescence-activated cell sorting analysis. Psen1/2 Aph1ABC-deficient MEFs were maintained in DMEM/f12 10% FCS. To rescue γ-secretase expression, Psen1/2 double KO/Aph1ABC triple KO MEFs were transduced using Murine Stem Cell Virus retroviral vector system (pMSCV) viral vectors (Clontech) containing the human coding sequences of the different PSEN and APH1 homologs and the zeocin selection marker. An Internal Ribosome Entry Site sequence was cloned between the coding sequences for PSEN and APH1 to ensure co-expression of both proteins. Stable transfected cell lines were selected using 500-μg/ml zeocin (Invitrogen). Four different combinations were made: PSEN1 and APH1AL, PSEN1 and APH1B, PSEN2 and APH1AL, and PSEN2 and APH1B. These cell lines were transduced with pMSCV viral vectors (Clontech) expressing APP-C99-GFP-puromycin. After puromycin selection (5 μg/ml), GFP-positive cells were selected through FACS sorting. For the alanine mutagenesis experiment, pMSCV PSEN1-APH1A viral vectors were generated by using a long PCR-based QuikChange strategy (Stratagene). Stable cell lines without clonal selection were generated for each mutant as described above. All cell lines were regularly tested for the absence of mycoplasma and used for maximum 20 passages in culture.
(§5) The number of plated cells and incubation times were determined in respect to linearity of Aβ peptide secretion, the dynamic range of Aβ peptide quantification in the medium, and sensitivity to dimethylsulfoxide (DMSO). […] MEF cells were plated in DMEM F12 supplemented with 10% FCS at 10,000 cells per well in 96-well clear bottom plates in the late afternoon and cultured for 16 h at 37 °C, 5% CO2. In the morning of the second day, the medium was replaced with 60 μl of DMEM/F12 supplemented with 2% FCS, and GSI or DMSO (controls) were added. Compounds were tested in serial dilutions with concentrations ranging from […] to 0.1 nM with 3-fold changes. The final concentration of DMSO in all wells was 0.2%. Plates were put in the incubator again at 37 °C, 5% CO2. After 8 h, the culture media were collected, and 30 μl was used to measure Aβ40 peptides. The cell viability was assessed using the CellTiter-Glo Luminescent assay (Promega) that measures ATP production. All screens were performed at one site, and reported IC50 values throughout the manuscript are from this site (Beerse) unless otherwise indicated. We however measured five compounds at the Leuven site and noticed that absolute IC50 values were different (Fig. S2). The main goal of the current work is to explore the basis for inhibitor selectivity for different γ-secretases, and selectivity was consistent in the assays at the two sites (Fig. S2).
(§6) Standard 96-well SECTOR plates (MSD) were coated with 1.5 μg/ml anti-Aβ JRFcAβ40/28 capture antibody in a final volume of 50 μl of PBS 0.05% Tween 20. After overnight incubation at 4 °C, the plates were five times rinsed with PBS 0.05% Tween 20 and blocked with 150 μl per well of casein buffer (PBS with 1% casein, pH 7.4) for 4 h at room temperature. Standards (synthetic human Aβ 1–40) were diluted in culture media. […]

[4] = molecular target: T4, PSEN1 M146A–APH1A γ-secretase complex (Homo sapiens, UniProt P49768, M146A); assay: Aβ40 secretion, MEF cell pool restored with PSEN1 M146A–APH1A; settings: decimal comma; for IC50: PSEN1 M146A (TM2)–APH1A cell pool, N = 3 to 4, mean (95% CI); for IC50 fold change to WT: PSEN1 M146A–APH1A cell pool
T4 construct: expressed in transfected cells; host or cells: Psen1/2 double KO/Aph1ABC triple KO MEFs, pools without clonal selection
Description: as §1, §4
as §2, with “(DMSO). […] MEF cells were plated in DMEM F12 supplemented with 10% FCS at 10,000 cells per well in 96-well clear bottom plates in the late afternoon and cultured for 16 h at 37 °C, 5% CO2.” for “(DMSO).”

[5] = molecular target: T5, PSEN1 L150A–APH1A γ-secretase complex (Homo sapiens, UniProt P49768, L150A); assay: Aβ40 secretion, MEF cell pool restored with PSEN1 L150A–APH1A; settings: decimal comma; for IC50: PSEN1 L150A (TM2)–APH1A cell pool, N = 3 to 4, mean (95% CI)
T5 construct: expressed in transfected cells; host or cells: Psen1/2 double KO/Aph1ABC triple KO MEFs, pools without clonal selection
Description: as §1, §3, §2

[6] = molecular target: T6, PSEN1 M233A–APH1A γ-secretase complex (Homo sapiens, UniProt P49768, M233A); assay: Aβ40 secretion, MEF cell pool restored with PSEN1 M233A–APH1A; settings: decimal comma; for IC50: PSEN1 M233A (TM5)–APH1A cell pool, N = 3 to 4, mean (95% CI)
T6 construct: expressed in transfected cells; host or cells: Psen1/2 double KO/Aph1ABC triple KO MEFs, pools without clonal selection
Description: as §1, §3, §2

[7] = molecular target: T7, PSEN1 I168A–APH1A γ-secretase complex (Homo sapiens, UniProt P49768, I168A); assay: Aβ40 secretion, MEF cell pool restored with PSEN1 I168A–APH1A; settings: decimal comma; for IC50: PSEN1 I168A (TM3)–APH1A cell pool, N = 3 to 4, mean (95% CI)
T7 construct: expressed in transfected cells; host or cells: Psen1/2 double KO/Aph1ABC triple KO MEFs, pools without clonal selection
Description: as §1, §3, §2

[8] = molecular target: T8, PSEN1 I229A–APH1A γ-secretase complex (Homo sapiens, UniProt P49768, I229A); assay: Aβ40 secretion, MEF cell pool restored with PSEN1 I229A–APH1A; settings: decimal comma; for IC50: PSEN1 I229A (TM5)–APH1A cell pool, N = 3 to 4, mean (95% CI); for IC50 fold change to WT: PSEN1 I229A–APH1A cell pool
T8 construct: expressed in transfected cells; host or cells: Psen1/2 double KO/Aph1ABC triple KO MEFs, pools without clonal selection
Description: as §1, §4
as §2, with “(DMSO). […] MEF cells were plated in DMEM F12 supplemented with 10% FCS at 10,000 cells per well in 96-well clear bottom plates in the late afternoon and cultured for 16 h at 37 °C, 5% CO2.” for “(DMSO).”

[9] = molecular target: T9, PSEN1 WT–APH1A γ-secretase complex (Homo sapiens, UniProt P49768); assay: Aβ40 secretion, MEF cell pool restored with PSEN1 WT–APH1A; settings: decimal comma; for IC50 fold change to WT: PSEN1 WT–APH1A cell pool (reference); for IC50: PSEN1 WT–APH1A cell pool, N = 3 to 4, mean (95% CI)
T9 construct: expressed in transfected cells; host or cells: Psen1/2 double KO/Aph1ABC triple KO MEFs
Description: as §1, §4, §5, §6

IC50 [1] [µM] | IC50 [2] [µM] | IC50 fold change to WT ([2]; PSEN1 L173A–APH1A cell pool) | increase in binding affinity by alanine substitution of L172 [3] [fold] | IC50 [4] [µM] | IC50 fold change to WT [4] | IC50 [5] [µM] | IC50 [6] [µM] | IC50 [7] [µM] | IC50 fold change to WT ([7]; PSEN1 I168A–APH1A cell pool) | IC50 [8] [µM] | IC50 fold change to WT [8] | IC50 fold change to WT [9] [fold] | IC50 [9] [µM] | IC50 ([3]; PSEN1 L172A (TM3)–APH1A cell pool, N = 3 to 4, mean (95% CI), decimal comma) [µM] | IC50 fold change to WT ([5]; PSEN1 L150A–APH1A cell pool) | IC50 fold change to WT ([6]; PSEN1 M233A–APH1A cell pool) | Structure (SMILES)
0.642 | 0.077 | 2,658 fold | 3.1 | 0.031 | 1,076 fold | 1.09 | 0.462 | 0.015 | 0,511 fold | 0.042 | 1,440 fold | 1 | 0.029 | – | – | – | O=S(=O)(c1ccc(Cl)cc1)N1[C@H]2CC[C@@H]([C@H]1c1ccc(C(F)(F)F)cc1)[C@@H](O)C2 [(+)-9b]
1.37 | 0.028 | – | 47 | 0.234 | 1,386 fold | 0.879 | 0.449 | 0.043 | – | 0.334 | 1,980 fold | 1 | 0.169 | 0.0036 | 5,207 fold and > 3 fold | 2,658 fold | C[C@H](NC(=O)Cc1cc(F)cc(F)c1)C(=O)N[C@H](C(=O)OC(C)(C)C)c1ccccc1 [DAPT]
